PubChem BioAssay (NCI)
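Briefly, cells in 96-well plates were exposed to five compound concentrations for 48 h, and endpoints were estimated by linear interpolation. TGI marks complete inhibition of growth.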

Experiments:
Test in all cases: NCI anticancer screen, dose series, 48 h
786-0 renal = system: 786-0 renal
A498 renal = system: A498 renal
A549 NSCLC = system: A549 NSCLC
ACHN renal = system: ACHN renal
BT-549 breast = system: BT-549 breast
CAKI-1 renal = system: CAKI-1 renal
CCRF-CEM leukemia = system: CCRF-CEM leukemia
COLO 205 colon = system: COLO 205 colon
DU-145 prostate = system: DU-145 prostate
EKVX NSCLC = system: EKVX NSCLC
HCC-2998 colon = system: HCC-2998 colon
HCT-116 colon = system: HCT-116 colon
HCT-15 colon = system: HCT-15 colon
HL-60(TB) leukemia = system: HL-60(TB) leukemia
HOP-62 NSCLC = system: HOP-62 NSCLC
HOP-92 NSCLC = system: HOP-92 NSCLC
HS 578T breast = system: HS 578T breast
HT29 colon = system: HT29 colon
IGROV1 ovarian = system: IGROV1 ovarian
K-562 leukemia = system: K-562 leukemia
KM12 colon = system: KM12 colon
LOX IMVI melanoma = system: LOX IMVI melanoma
M14 melanoma = system: M14 melanoma
MALME-3M melanoma = system: MALME-3M melanoma
MCF7 breast = system: MCF7 breast
MDA-MB-231 breast = system: MDA-MB-231 breast
MDA-MB-435 = system: MDA-MB-435
MDA-N = system: MDA-N
MOLT-4 leukemia = system: MOLT-4 leukemia
NCI-H226 lung = system: NCI-H226 lung
NCI-H23 lung = system: NCI-H23 lung
NCI-H460 lung = system: NCI-H460 lung
NCI-H522 lung = system: NCI-H522 lung
NCI/ADR-RES ovarian = system: NCI/ADR-RES ovarian
OVCAR-3 ovarian = system: OVCAR-3 ovarian
OVCAR-4 ovarian = system: OVCAR-4 ovarian
OVCAR-5 ovarian = system: OVCAR-5 ovarian
OVCAR-8 ovarian = system: OVCAR-8 ovarian
PC-3 prostate = system: PC-3 prostate
RPMI-8226 leukemia = system: RPMI-8226 leukemia
RXF 393 renal = system: RXF 393 renal
SF-268 CNS = system: SF-268 CNS
SF-295 CNS = system: SF-295 CNS
SF-539 CNS = system: SF-539 CNS
SK-MEL-2 melanoma = system: SK-MEL-2 melanoma
SK-MEL-28 melanoma = system: SK-MEL-28 melanoma
SK-MEL-5 melanoma = system: SK-MEL-5 melanoma
SK-OV-3 ovarian = system: SK-OV-3 ovarian
SN12C renal = system: SN12C renal
SNB-19 CNS = system: SNB-19 CNS
SNB-75 CNS = system: SNB-75 CNS
SR leukemia = system: SR leukemia
SW-620 colon = system: SW-620 colon
T-47D breast = system: T-47D breast
TK-10 renal = system: TK-10 renal
UACC-257 melanoma = system: UACC-257 melanoma
UACC-62 melanoma = system: UACC-62 melanoma
UO-31 renal = system: UO-31 renal
U251 CNS = system: U251 CNS

## O=C1NC(N/N=C\C(O)C(O)C(O)C(O)CO)=N/C1=C\c1ccc(Cl)cc1 (stereo unspecified)
786-0 renal
  TGI: 18.1 µM
A498 renal
  TGI: 39.9 µM
A549 NSCLC
  TGI: > 73.3 µM
ACHN renal
  TGI: > 59.1 µM
BT-549 breast
  TGI: 31.4 µM
CAKI-1 renal
  TGI: > 100 µM
CCRF-CEM leukemia
  TGI: > 73.1 µM
COLO 205 colon
  TGI: 23.7 µM
DU-145 prostate
  TGI: 91.5 µM
EKVX NSCLC
  TGI: 38.9 µM
HCC-2998 colon
  TGI: 36.3 µM
HCT-116 colon
  TGI: > 40.4 µM
HCT-15 colon
  TGI: > 100 µM
HL-60(TB) leukemia
  TGI: > 72.1 µM
HOP-62 NSCLC
  TGI: 7.5 µM
HOP-92 NSCLC
  TGI: 7.44 µM
HS 578T breast
  TGI: 6.68 µM
HT29 colon
  TGI: 36.3 µM
IGROV1 ovarian
  TGI: 31.9 µM
K-562 leukemia
  TGI: > 100 µM
KM12 colon
  TGI: > 80.7 µM
LOX IMVI melanoma
  TGI: 12.8 µM
M14 melanoma
  TGI: 18.1 µM
MALME-3M melanoma
  TGI: 5.95 µM
MCF7 breast
  TGI: > 100 µM
MDA-MB-231 breast
  TGI: 15.2 µM
MDA-MB-435
  TGI: 34.7 µM
MDA-N
  TGI: 9.99 µM
MOLT-4 leukemia
  TGI: 24.6 µM
NCI-H226 lung
  TGI: 10.6 µM
NCI-H23 lung
  TGI: 21.2 µM
NCI-H460 lung
  TGI: 32.3 µM
NCI-H522 lung
  TGI: 7.46 µM
NCI/ADR-RES ovarian
  TGI: > 100 µM
OVCAR-3 ovarian
  TGI: 6.88 µM
OVCAR-4 ovarian
  TGI: 26 µM
OVCAR-5 ovarian
  TGI: > 66.6 µM
OVCAR-8 ovarian
  TGI: 5.63 µM
PC-3 prostate
  TGI: 18.5 µM
RPMI-8226 leukemia
  TGI: > 100 µM
RXF 393 renal
  TGI: 25.6 µM
SF-268 CNS
  TGI: 10.5 µM
SF-295 CNS
  TGI: 31.5 µM
SF-539 CNS
  TGI: 1.01 µM
SK-MEL-2 melanoma
  TGI: 23.1 µM
SK-MEL-28 melanoma
  TGI: > 100 µM
SK-MEL-5 melanoma
  TGI: 31.4 µM
SK-OV-3 ovarian
  TGI: 40.6 µM
SN12C renal
  TGI: 15.3 µM
SNB-19 CNS
  TGI: 10.9 µM
SNB-75 CNS
  TGI: 6.04 µM
SR leukemia
  TGI: 19.3 µM
SW-620 colon
  TGI: > 100 µM
T-47D breast
  TGI: 14.1 µM
TK-10 renal
  TGI: 27.4 µM
UACC-257 melanoma
  TGI: 37.4 µM
UACC-62 melanoma
  TGI: 3.14 µM
UO-31 renal
  TGI: > 79.9 µM

## CCCCc1ccc(Nc2nc3c(ncn3COCCBr)c(=O)[nH]2)cc1
786-0 renal
  TGI: > 100 µM
A498 renal
  TGI: > 100 µM
A549 NSCLC
  TGI: > 100 µM
ACHN renal
  TGI: > 100 µM
BT-549 breast
  TGI: > 100 µM
CAKI-1 renal
  TGI: > 100 µM
CCRF-CEM leukemia
  TGI: > 100 µM
COLO 205 colon
  TGI: > 100 µM
DU-145 prostate
  TGI: > 100 µM
EKVX NSCLC
  TGI: > 100 µM
HCC-2998 colon
  TGI: > 100 µM
HCT-116 colon
  TGI: > 100 µM
HCT-15 colon
  TGI: > 100 µM
HL-60(TB) leukemia
  TGI: > 100 µM
HOP-62 NSCLC
  TGI: > 100 µM
HOP-92 NSCLC
  TGI: > 100 µM
HS 578T breast
  TGI: > 100 µM
HT29 colon
  TGI: > 100 µM
IGROV1 ovarian
  TGI: > 100 µM
K-562 leukemia
  TGI: > 100 µM
KM12 colon
  TGI: > 100 µM
LOX IMVI melanoma
  TGI: > 100 µM
M14 melanoma
  TGI: > 100 µM
MALME-3M melanoma
  TGI: > 100 µM
MCF7 breast
  TGI: > 100 µM
MDA-MB-231 breast
  TGI: > 100 µM
MDA-MB-435
  TGI: > 100 µM
MDA-N
  TGI: > 100 µM
MOLT-4 leukemia
  TGI: > 100 µM
NCI-H226 lung
  TGI: > 100 µM
NCI-H23 lung
  TGI: > 100 µM
NCI-H460 lung
  TGI: > 100 µM
NCI-H522 lung
  TGI: > 100 µM
NCI/ADR-RES ovarian
  TGI: > 100 µM
OVCAR-3 ovarian
  TGI: > 100 µM
OVCAR-4 ovarian
  TGI: > 100 µM
OVCAR-5 ovarian
  TGI: > 100 µM
OVCAR-8 ovarian
  TGI: > 100 µM
PC-3 prostate
  TGI: > 100 µM
RPMI-8226 leukemia
  TGI: > 100 µM
RXF 393 renal
  TGI: > 100 µM
SF-268 CNS
  TGI: > 100 µM
SF-295 CNS
  TGI: > 100 µM
SF-539 CNS
  TGI: > 100 µM
SK-MEL-2 melanoma
  TGI: > 100 µM
SK-MEL-5 melanoma
  TGI: > 100 µM
SK-OV-3 ovarian
  TGI: > 100 µM
SN12C renal
  TGI: > 100 µM
SNB-19 CNS
  TGI: > 100 µM
SNB-75 CNS
  TGI: > 100 µM
SR leukemia
  TGI: > 100 µM
SW-620 colon
  TGI: > 100 µM
T-47D breast
  TGI: > 100 µM
TK-10 renal
  TGI: > 100 µM
U251 CNS
  TGI: > 100 µM
UACC-257 melanoma
  TGI: > 100 µM
UACC-62 melanoma
  TGI: > 100 µM
UO-31 renal
  TGI: > 100 µM
